Assay results published in patent US6358885B1, “Substituted phenylheterocyclic herbicides” (Mississippi State University, priority 1992, dated 2002).

Legend:
Assay in all cases: Test B preemergence/postemergence greenhouse plant response rating 0 to 10
Settings in all cases: 0 to 10 scale
barley = assay type: in vivo, Hordeum vulgare
How it was run: (§1)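 Postemergence treatment of plants two to eighteen cm tall ran alongside preemergence treatment of planted seed, each using compound in a non-phytotoxic solvent.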

barnyardgrass = assay type: in vivo, Echinochloa crus-galli
How it was run: as §1

bedstraw = assay type: in vivo, Galium aparine
How it was run: as §1

blackgrass = assay type: in vivo, Alopecurus myosuroides
How it was run: as §1

cheatgrass = assay type: in vivo, Bromus secalinus
How it was run: as §1

chickweed = assay type: in vivo, Stellaria media
How it was run: as §1

cocklebur = assay type: in vivo, Xanthium pensylvanicum
How it was run: as §1

corn = assay type: in vivo, Zea mays
How it was run: as §1

cotton = assay type: in vivo, Gossypium hirsutum
How it was run: as §1

crabgrass = assay type: in vivo, Digitaria spp.
How it was run: as §1

giant foxtail = assay type: in vivo, Setaria faberii
How it was run: as §1

lambsquarters = assay type: in vivo, Chenopodium album
How it was run: as §1

morningglory = assay type: in vivo, Ipomoea hederacea
How it was run: as §1

rape = assay type: in vivo, Brassica napus
How it was run: as §1

rice = assay type: in vivo, Oryza sativa
How it was run: as §1

sorghum = assay type: in vivo, Sorghum bicolor
How it was run: as §1

soybean = assay type: in vivo, Glycine max
How it was run: as §1

sugar beet = assay type: in vivo, Beta vulgaris
How it was run: as §1

velvetleaf = assay type: in vivo, Abutilon theophrasti
How it was run: as §1

wheat = assay type: in vivo, Triticum aestivum
How it was run: as §1

wild buckwheat = assay type: in vivo, Polygonum convolvulus
How it was run: as §1

wild oat = assay type: in vivo, Avena fatua
How it was run: as §1

purple nutsedge = assay type: in vivo, Cyperus rotundus
How it was run: as §1

SMILES: O=C1COc2cc(F)c(-c3nn4c(c3Cl)CCCC4)cc2N1 [Compound 51]
- Plant response rating, Barley (barley; POSTEMERGENCE, Rate 50 g/ha): 3
- Plant response rating, Barley (barley; POSTEMERGENCE, Rate 200 g/ha): 3
- Plant response rating, Barley (barley; PREEMERGENCE, Rate 50 g/ha): 0
- Plant response rating, Barley (barley; Rate 200 g/ha, PREEMERGENCE): 0
- Plant response rating, Barnyardgrass (barnyardgrass; POSTEMERGENCE, Rate 50 g/ha): 8
- Plant response rating, Barnyardgrass (barnyardgrass; POSTEMERGENCE, Rate 200 g/ha): 9
- Plant response rating, Barnyardgrass (barnyardgrass; PREEMERGENCE, Rate 50 g/ha): 9
- Plant response rating, Barnyardgrass (barnyardgrass; Rate 200 g/ha, PREEMERGENCE): 9
- Plant response rating, Bedstraw (bedstraw; POSTEMERGENCE, Rate 50 g/ha): 10
- Plant response rating, Bedstraw (bedstraw; POSTEMERGENCE, Rate 200 g/ha): 10
- Plant response rating, Bedstraw (bedstraw; PREEMERGENCE, Rate 50 g/ha): 5
- Plant response rating, Bedstraw (bedstraw; Rate 200 g/ha, PREEMERGENCE): 10
- Plant response rating, Blackgrass (blackgrass; POSTEMERGENCE, Rate 50 g/ha): 6
- Plant response rating, Blackgrass (blackgrass; POSTEMERGENCE, Rate 200 g/ha): 6
- Plant response rating, Blackgrass (blackgrass; PREEMERGENCE, Rate 50 g/ha): 2
- Plant response rating, Blackgrass (blackgrass; Rate 200 g/ha, PREEMERGENCE): 6
- Plant response rating, Cheatgrass (cheatgrass; POSTEMERGENCE, Rate 50 g/ha): 4
- Plant response rating, Cheatgrass (cheatgrass; POSTEMERGENCE, Rate 200 g/ha): 4
- Plant response rating, Cheatgrass (cheatgrass; PREEMERGENCE, Rate 50 g/ha): 3
- Plant response rating, Cheatgrass (cheatgrass; Rate 200 g/ha, PREEMERGENCE): 5
- Plant response rating, Chickweed (chickweed; POSTEMERGENCE, Rate 50 g/ha): 10
- Plant response rating, Chickweed (chickweed; POSTEMERGENCE, Rate 200 g/ha): 10
- Plant response rating, Chickweed (chickweed; PREEMERGENCE, Rate 50 g/ha): 6
- Plant response rating, Chickweed (chickweed; Rate 200 g/ha, PREEMERGENCE): 10
- Plant response rating, Cocklebur (cocklebur; POSTEMERGENCE, Rate 50 g/ha): 9
- Plant response rating, Cocklebur (cocklebur; POSTEMERGENCE, Rate 200 g/ha): 10
- Plant response rating, Cocklebur (cocklebur; PREEMERGENCE, Rate 50 g/ha): 2
- Plant response rating, Cocklebur (cocklebur; Rate 200 g/ha, PREEMERGENCE): 9
- Plant response rating, Corn (corn; POSTEMERGENCE, Rate 50 g/ha): 4
- Plant response rating, Corn (corn; POSTEMERGENCE, Rate 200 g/ha): 6
- Plant response rating, Corn (corn; PREEMERGENCE, Rate 50 g/ha): 0
- Plant response rating, Corn (corn; Rate 200 g/ha, PREEMERGENCE): 0
- Plant response rating, Cotton (cotton; POSTEMERGENCE, Rate 50 g/ha): 10
- Plant response rating, Cotton (cotton; POSTEMERGENCE, Rate 200 g/ha): 10
- Plant response rating, Cotton (cotton; PREEMERGENCE, Rate 50 g/ha): 1
- Plant response rating, Cotton (cotton; Rate 200 g/ha, PREEMERGENCE): 5
- Plant response rating, Crabgrass (crabgrass; POSTEMERGENCE, Rate 50 g/ha): 4
- Plant response rating, Crabgrass (crabgrass; POSTEMERGENCE, Rate 200 g/ha): 5
- Plant response rating, Crabgrass (crabgrass; PREEMERGENCE, Rate 50 g/ha): 2
- Plant response rating, Crabgrass (crabgrass; Rate 200 g/ha, PREEMERGENCE): 9
- Plant response rating, Giant foxtail (giant foxtail; POSTEMERGENCE, Rate 50 g/ha): 4
- Plant response rating, Giant foxtail (giant foxtail; PREEMERGENCE, Rate 50 g/ha): 2
- Plant response rating, Giant foxtail (giant foxtail; Rate 200 g/ha, POSTEMERGENCE): 6
- Plant response rating, Giant foxtail (giant foxtail; Rate 200 g/ha, PREEMERGENCE): 8
- Plant response rating, Lambsquarter (lambsquarters; POSTEMERGENCE, Rate 50 g/ha): 10
- Plant response rating, Lambsquarter (lambsquarters; PREEMERGENCE, Rate 50 g/ha): 10
- Plant response rating, Lambsquarter (lambsquarters; Rate 200 g/ha, POSTEMERGENCE): 10
- Plant response rating, Lambsquarter (lambsquarters; Rate 200 g/ha, PREEMERGENCE): 10
- Plant response rating, Morningglory (morningglory; POSTEMERGENCE, Rate 50 g/ha): 9
- Plant response rating, Morningglory (morningglory; PREEMERGENCE, Rate 50 g/ha): 9
- Plant response rating, Morningglory (morningglory; Rate 200 g/ha, POSTEMERGENCE): 10
- Plant response rating, Morningglory (morningglory; Rate 200 g/ha, PREEMERGENCE): 10
- Plant response rating, Rape (rape; POSTEMERGENCE, Rate 50 g/ha): 7
- Plant response rating, Rape (rape; PREEMERGENCE, Rate 50 g/ha): 8
- Plant response rating, Rape (rape; Rate 200 g/ha, POSTEMERGENCE): 10
- Plant response rating, Rape (rape; Rate 200 g/ha, PREEMERGENCE): 10
- Plant response rating, Rice (rice; POSTEMERGENCE, Rate 50 g/ha): 3
- Plant response rating, Rice (rice; PREEMERGENCE, Rate 50 g/ha): 0
- Plant response rating, Rice (rice; Rate 200 g/ha, POSTEMERGENCE): 5
- Plant response rating, Rice (rice; Rate 200 g/ha, PREEMERGENCE): 2
- Plant response rating, Sorghum (sorghum; POSTEMERGENCE, Rate 50 g/ha): 4
- Plant response rating, Sorghum (sorghum; PREEMERGENCE, Rate 50 g/ha): 0
- Plant response rating, Sorghum (sorghum; Rate 200 g/ha, POSTEMERGENCE): 6
- Plant response rating, Sorghum (sorghum; Rate 200 g/ha, PREEMERGENCE): 0
- Plant response rating, Soybean (soybean; POSTEMERGENCE, Rate 50 g/ha): 8
- Plant response rating, Soybean (soybean; PREEMERGENCE, Rate 50 g/ha): 1
- Plant response rating, Soybean (soybean; Rate 200 g/ha, POSTEMERGENCE): 9
- Plant response rating, Soybean (soybean; Rate 200 g/ha, PREEMERGENCE): 8
- Plant response rating, Sugar beet (sugar beet; POSTEMERGENCE, Rate 50 g/ha): 10
- Plant response rating, Sugar beet (sugar beet; PREEMERGENCE, Rate 50 g/ha): 10
- Plant response rating, Sugar beet (sugar beet; Rate 200 g/ha, POSTEMERGENCE): 10
- Plant response rating, Sugar beet (sugar beet; Rate 200 g/ha, PREEMERGENCE): 10
- Plant response rating, Velvetleaf (velvetleaf; POSTEMERGENCE, Rate 50 g/ha): 9
- Plant response rating, Velvetleaf (velvetleaf; PREEMERGENCE, Rate 50 g/ha): 10
- Plant response rating, Velvetleaf (velvetleaf; Rate 200 g/ha, POSTEMERGENCE): 10
- Plant response rating, Velvetleaf (velvetleaf; Rate 200 g/ha, PREEMERGENCE): 10
- Plant response rating, Wheat (wheat; POSTEMERGENCE, Rate 50 g/ha): 3
- Plant response rating, Wheat (wheat; PREEMERGENCE, Rate 50 g/ha): 0
- Plant response rating, Wheat (wheat; Rate 200 g/ha, POSTEMERGENCE): 4
- Plant response rating, Wheat (wheat; Rate 200 g/ha, PREEMERGENCE): 2
- Plant response rating, Wild buckwheat (wild buckwheat; POSTEMERGENCE, Rate 50 g/ha): 10
- Plant response rating, Wild buckwheat (wild buckwheat; PREEMERGENCE, Rate 50 g/ha): 10
- Plant response rating, Wild buckwheat (wild buckwheat; Rate 200 g/ha, POSTEMERGENCE): 10
- Plant response rating, Wild buckwheat (wild buckwheat; Rate 200 g/ha, PREEMERGENCE): 10
- Plant response rating, Wild oat (wild oat; POSTEMERGENCE, Rate 50 g/ha): 2
- Plant response rating, Wild oat (wild oat; PREEMERGENCE, Rate 50 g/ha): 0
- Plant response rating, Wild oat (wild oat; Rate 200 g/ha, POSTEMERGENCE): 3
- Plant response rating, Nutsedge (purple nutsedge; POSTEMERGENCE, Rate 50 g/ha): 3
- Plant response rating, Nutsedge (purple nutsedge; PREEMERGENCE, Rate 50 g/ha): 0
- Plant response rating, Nutsedge (purple nutsedge; Rate 200 g/ha, POSTEMERGENCE): 3
- Plant response rating, Nutsedge (purple nutsedge; Rate 200 g/ha, PREEMERGENCE): 0
